# Results taken from paper PMC10363480 (Plant Communications, 2023).
# Test system: mitochondria or chloroplast of Chlamydomonas reinhardtii
# Test: Subcellular localization of Venus reporter by epifluorescence microscopy (manual targeting assignment)
# Format: cell-based
# Details: manual targeting assignment of the Venus reporter construct in Chlamydomonas: Neither / Mitochondria / Chloroplast / Dual, (partial) = partial targeting
# From the text: In a bid to keep peptidase recognition sites intact, C-terminal elements were designed to start 10 residues upstream of the cleavage site, even though this slightly truncates TP helices. Peptides carrying the 15-amino-acid cTP N-terminus (cTP-N) will be denoted ^cP. Similarly, peptides with C-terminal elements from RCA1-cTP (cTP-C) or CAG2-mTP (mTP-C) will be denoted P^c or P^m, respectively. Peptide variants are used to drive the subcellular localization of a Venus fluorescent reporter protein, which was assessed using fluorescence microscopy; in Figure 2, an executive overview of observed Venus localization is presented for all constructs. […] Here, we use automated image segmentation to validate our subcellular localization assessment (Supplemental Figure 2, Supplemental text). […] The reader will be asked to return to Figure 2 throughout, with Figures 3 and 4 providing selected micrographs as examples highlighting particular points of interest.
# Chlamydomonas TP sequences were amplified from genomic DNA extracted from strain T222+ (CC-5101). Templates for codon-optimized HA-RAMP, RP, and R→K modified TP sequences were obtained by gene synthesis (Eurofins Genomics). Correct assembly was verified by sequencing (Eurofins Genomics). Linear transformation cassettes were generated through restriction digestion with EcoRV (New England Biolabs).
# Constructs were transformed into wild-type strain T222+ (CC-5101) using a protocol described previously ([Onishi and Pringle, 2016]), except using 4 μl of DNA at 2 μg/μl.
# Strains with suspected mitochondrial targeting were treated with 0.1 μM MitoTracker Red CMXRos (Thermo Fisher Scientific) in growth medium for 30 min in the dark and washed with TAP prior to taking images.
# Legend for Fig. S3 – S20. Three independent transformant lines (Strains 1-3) are shown for each combination of modifications (A-L), represented by a cartoon and a shorthand description (cf. Fig.
# 2). Where a construct was interpreted as generating reporter localization in mitochondria or […]
# Epifluorescence microscopy images of typical cells for each strain are shown. MitoTracker fluorescence, false-coloured in cyan, indicates the position of mitochondria (although parts of the cell exterior are sometimes also stained). False-coloured yellow fluorescence from the Venus channel reports on the subcellular localization of the fluorescent reporter. Chlorophyll autofluorescence, shown in magenta, indicates the location of the chloroplast. Scale bars are 5µm. Brightness (Br.) was adjusted for clarity: fluorescence intensity values were restricted to the range shown for each channel by matching coloured rectangles. Intensity scales to 0 at the bottom of the panel, and to 65535 at the top.
# On the right-hand side, quantitative information associated with each construct is shown. Data was normalized such that averages range from 0 to 1 across all constructs (cf. Fig S2). Individual cell measurements may exceed this range; for clarity, the range shown here is limited to -0.5 to 1.5, with outliers that have more extreme values shown as lying beyond a dashed line. Strain 1 is plotted as circles, strain 2 as squares, and strain 3 as diamonds. Venus: Fluorescence plate reader data of transformants screened for this construct (Venus fluorescence, accounting for cell density using linear regression of OD750 and chlorophyll fluorescence trained on ‘no venus’ control transformants). Transformants that were not selected after screening are shown as small grey circles. A colour code ranging from white (low Venus fluorescence) to black (high Venus fluorescence) is used for strains 1-3 and the average thereof. Automated image quantification data: pyr/chl: Venus channel signal in the pyrenoid relative to in the chlorophyll region; mt/cell: Venus channel signal in mitochondria relative to the whole cell. Each point corresponds to a single cell.
# The colour code code is the same as that below distributions in Fig. S2, i.e. blue highlights the […]
row,Sequence,Localisation
1,MQVTMKSSAVSGQRVGGARVATR [c.CH.R],Neither
2,MQVTMKSSAVSGQRVGGARVATRLTQTAESFRGVSSQFFDAPNGPSVKQVLIEDEW [c.CH.R.m],Neither
3,MQVTMKSSAVSGQRVGGARVATRSVRRAQLQVVASSRKQMGRWRSIDAGVDASDDQ [c.CH.R.c],Chloroplast
4,MQVTMKSSAVSGQRVGRIPVRAIRRAGAAIGRGLRAINIASTAHDVYSFFRPRHRRR [c.SIM.R],Chloroplast
5,MQVTMKSSAVSGQRVGRIPVRAIRRAGAAIGRGLRAINIASTAHDVYSFFRPRHRRRLTQTAESFRGVSSQFFDAPNGPSVKQVLIEDEW [c.SIM.R.m],Chloroplast
6,MQVTMKSSAVSGQRVGRIPVRAIRRAGAAIGRGLRAINIASTAHDVYSFFRPRHRRRSVRRAQLQVVASSRKQMGRWRSIDAGVDASDDQ [c.SIM.R.c],Chloroplast
7,MQVTMKSSAVSGQRVLTQTAESFRGVSSQFFDAPNGPSVKQVLIEDEW [c.-.m],Neither
8,MQVTMKSSAVSGQRVMGLLLDTLRGAARDIAGIALERLRCRITGCRP [c.R2G.R],Mitochondria
9,MQVTMKSSAVSGQRVMGLLLDTLRGAARDIAGIALERLRCRITGCRPLTQTAESFRGVSSQFFDAPNGPSVKQVLIEDEW [c.R2G.R.m],Mitochondria
10,MQVTMKSSAVSGQRVMGLLLDTLRGAARDIAGIALERLRCRITGCRPSVRRAQLQVVASSRKQMGRWRSIDAGVDASDDQ [c.R2G.R.c],Dual
11,MQVTMKSSAVSGQRVMGWIRDFGRRIERVGQHTRDATIQTIAVAQQAANVAATLRG [c.S1D.R],Mitochondria
12,MQVTMKSSAVSGQRVMGWIRDFGRRIERVGQHTRDATIQTIAVAQQAANVAATLRGLTQTAESFRGVSSQFFDAPNGPSVKQVLIEDEW [c.S1D.R.m],Dual
13,MQVTMKSSAVSGQRVMGWIRDFGRRIERVGQHTRDATIQTIAVAQQAANVAATLRGSVRRAQLQVVASSRKQMGRWRSIDAGVDASDDQ [c.S1D.R.c],Chloroplast

# Same assay, conditions: peptide-Venus reporter construct expressed in Chlamydomonas reinhardtii; manual targeting assignment (Neither / Mitochondria / Chloroplast / Dual; partial = partial targeting)
row,Sequence,Localisation
1,MQVTMKSSAVSGQRVGIGKFLHSAKKFGKAFVGEIMNS [c.MII.K],Mitochondria
2,MQVTMKSSAVSGQRVGIGKFLHSAKKFGKAFVGEIMNSLTQTAESFRGVSSQFFDAPNGPSVKQVLIEDEW [c.MII.K.m],Mitochondria (partial)
3,MQVTMKSSAVSGQRVGIGKFLHSAKKFGKAFVGEIMNSSVRRAQLQVVASSRKQMGRWRSIDAGVDASDDQ [c.MII.K.c],Chloroplast
4,MQVTMKSSAVSGQRVGIGRFLHSARRFGRAFVGEIMNS [c.MII.R],Mitochondria
5,MQVTMKSSAVSGQRVGIGRFLHSARRFGRAFVGEIMNSLTQTAESFRGVSSQFFDAPNGPSVKQVLIEDEW [c.MII.R.m],Dual
6,MQVTMKSSAVSGQRVMGLFSKFNKKKIKSGLIKIIKTAGKEAGLEALRTGIDVIGCKIKGECSVRRAQLQVVASSRKQMGRWRSIDAGVDASDDQ [c.E1S.K.c],Chloroplast
7,MQVTMKSSAVSGQRVMGLFSRFNRRRIRSGLIRIIRTAGREAGLEALRTGIDVIGCRIRGECSVRRAQLQVVASSRKQMGRWRSIDAGVDASDDQ [c.E1S.R.c],Chloroplast
8,MQVTMKSSAVSGQRVMKYYGNGVHCTKSGCSVNWGEAFSAGVHRLANGGNGFW [c.LCA.K],Neither
9,MQVTMKSSAVSGQRVMKYYGNGVHCTKSGCSVNWGEAFSAGVHRLANGGNGFWLTQTAESFRGVSSQFFDAPNGPSVKQVLIEDEW [c.LCA.K.m],Chloroplast
10,MQVTMKSSAVSGQRVMKYYGNGVHCTKSGCSVNWGEAFSAGVHRLANGGNGFWSVRRAQLQVVASSRKQMGRWRSIDAGVDASDDQ [c.LCA.K.c],Chloroplast (partial)
11,MQVTMKSSAVSGQRVMKYYGNGVHCTRSGCSVNWGEAFSAGVHRLANGGNGFW [c.LCA.R],Neither
12,MQVTMKSSAVSGQRVMKYYGNGVHCTRSGCSVNWGEAFSAGVHRLANGGNGFWLTQTAESFRGVSSQFFDAPNGPSVKQVLIEDEW [c.LCA.R.m],Neither
13,MQVTMKSSAVSGQRVMKYYGNGVHCTRSGCSVNWGEAFSAGVHRLANGGNGFWSVRRAQLQVVASSRKQMGRWRSIDAGVDASDDQ [c.LCA.R.c],Chloroplast

# Same assay, conditions: targeting of the Venus reporter fused to the peptide, expressed in Chlamydomonas reinhardtii; manual assignment from epifluorescence microscopy; full or partial
row,Sequence,Localisation
1,MQVTMKSSAVSGQRVFLPLLAGLAANFLPRIFCRITRRC [c.B1E.R],Mitochondria
2,MQVTMKSSAVSGQRVFLPLLAGLAANFLPRIFCRITRRCLTQTAESFRGVSSQFFDAPNGPSVKQVLIEDEW [c.B1E.R.m],Dual
3,MQVTMKSSAVSGQRVFLPLLAGLAANFLPRIFCRITRRCSVRRAQLQVVASSRKQMGRWRSIDAGVDASDDQ [c.B1E.R.c],Chloroplast
4,MQVTMKSSAVSGQRVGIGRFLHSARRFGRAFVGEIMNSSVRRAQLQVVASSRKQMGRWRSIDAGVDASDDQ [c.MII.R.c],Chloroplast
5,MQVTMKSSAVSGQRVMALWKTMLKKLGTMALHAGKAAFGAAADTISQ [c.DDM.K],Neither
6,MQVTMKSSAVSGQRVMALWKTMLKKLGTMALHAGKAAFGAAADTISQLTQTAESFRGVSSQFFDAPNGPSVKQVLIEDEW [c.DDM.K.m],Neither
7,MQVTMKSSAVSGQRVMALWKTMLKKLGTMALHAGKAAFGAAADTISQSVRRAQLQVVASSRKQMGRWRSIDAGVDASDDQ [c.DDM.K.c],Chloroplast (partial)
8,MQVTMKSSAVSGQRVMGKIPVKAIKKAGAAIGKGLRAINIASTAHDVYSFFKPKHKKK [c.SIM.K],Chloroplast (partial)
9,MQVTMKSSAVSGQRVMGKIPVKAIKKAGAAIGKGLRAINIASTAHDVYSFFKPKHKKKLTQTAESFRGVSSQFFDAPNGPSVKQVLIEDEW [c.SIM.K.m],Chloroplast
10,MQVTMKSSAVSGQRVMGKIPVKAIKKAGAAIGKGLRAINIASTAHDVYSFFKPKHKKKSVRRAQLQVVASSRKQMGRWRSIDAGVDASDDQ [c.SIM.K.c],Chloroplast
11,MQVTMKSSAVSGQRVMGLFSKFNKKKIKSGLIKIIKTAGKEAGLEALRTGIDVIGCKIKGEC [c.E1S.K],Neither
12,MQVTMKSSAVSGQRVMGLFSKFNKKKIKSGLIKIIKTAGKEAGLEALRTGIDVIGCKIKGECLTQTAESFRGVSSQFFDAPNGPSVKQVLIEDEW [c.E1S.K.m],Chloroplast
13,MQVTMKSSAVSGQRVMGLFSRFNRRRIRSGLIRIIRTAGREAGLEALRTGIDVIGCRIRGEC [c.E1S.R],Chloroplast
14,MQVTMKSSAVSGQRVMGLFSRFNRRRIRSGLIRIIRTAGREAGLEALRTGIDVIGCRIRGECLTQTAESFRGVSSQFFDAPNGPSVKQVLIEDEW [c.E1S.R.m],Chloroplast
15,MQVTMKSSAVSGQRVMGLLLDTLKGAAKDIAGIALEKLKCKITGCKP [c.R2G.K],Mitochondria (partial)
16,MQVTMKSSAVSGQRVMGLLLDTLKGAAKDIAGIALEKLKCKITGCKPLTQTAESFRGVSSQFFDAPNGPSVKQVLIEDEW [c.R2G.K.m],Mitochondria
17,MQVTMKSSAVSGQRVMGLLLDTLKGAAKDIAGIALEKLKCKITGCKPSVRRAQLQVVASSRKQMGRWRSIDAGVDASDDQ [c.R2G.K.c],Mitochondria (partial)
18,MQVTMKSSAVSGQRVMGWIRDFGKRIERVGQHTRDATIQTIAVAQQAANVAATLKG [c.S1D.K],Mitochondria
19,MQVTMKSSAVSGQRVMGWIRDFGKRIERVGQHTRDATIQTIAVAQQAANVAATLKGLTQTAESFRGVSSQFFDAPNGPSVKQVLIEDEW [c.S1D.K.m],Dual
20,MQVTMKSSAVSGQRVMGWIRDFGKRIERVGQHTRDATIQTIAVAQQAANVAATLKGSVRRAQLQVVASSRKQMGRWRSIDAGVDASDDQ [c.S1D.K.c],Chloroplast
21,MQVTMKSSAVSGQRVMKYYGNGVSCNKKGCSVDWGKAIGIIGNNAAANLTTGGKAGWKG [c.EHF.K],Neither
22,MQVTMKSSAVSGQRVMKYYGNGVSCNKKGCSVDWGKAIGIIGNNAAANLTTGGKAGWKGLTQTAESFRGVSSQFFDAPNGPSVKQVLIEDEW [c.EHF.K.m],Chloroplast
